Laboratory results published in the CATMoS acute toxicity set (Mansouri et al. 2021).

Assay: GHS categories as the set defines them, by LD50: 1 up to 5, 2 up to 50, 3 up to 300, 4 up to 2000, 5 above 2000 mg/kg
Details: rat; in vivo; po
Text: […]The data set underlying the modeling effort for this project was initially compiled by NICEATM and U.S. EPA’s CCTE. Briefly, LD50 data were collected from rat acute oral systemic toxicity tests, including limit tests, ranges/confidence intervals, and discrete LD50 values. The full data set included 21,200 LD50 entries for 15,688 substances. […] Data were reviewed to ensure that LD50 values with obvious errors in the extracted data such as unit conversion errors (e.g., comma and decimal separator misplacements) were either fixed or removed. After this review, 16,209 LD50 values remained. Many of the chemicals represented had multiple LD50 entries, requiring that a single representative value per Chemical Abstracts Service Registry Number (CASRN) identifier be defined to facilitate modeling efforts. Based on ATWG feedback and to define the representative LD50 as a protective value while accounting for the distribution across multiple LD50s, the median of the lowest quartile was computed using only discrete LD50 values (omitting limit test data and range and confidence interval data). A detailed summary of the data compilation is available online on the NICEATM webpage dedicated to the collaborative modeling project (NTP 2020).
[…][…] For categorical designations, limit test and range/confidence interval LD50 data were integrated wherever possible. As such, the number of chemicals with end point values/calls varies across the modeling end points (Table 3) based on whether chemicals had representative LD50 values and/or other data. If a chemical had both, the representative value was used to determine categorical calls rather than limit test data. Some data were useable only for certain end points and categories depending on the thresholds. For example, ranges that spanned multiple hazard categories were considered only for the binary (very toxic/nontoxic) end points and omitted from rendering a determination for hazard category assignment.
[…]The final data set comprising 11,992 chemicals was split into training and evaluation sets […], respectively. This process was performed semirandomly by ordering chemicals based on the five end points (categorical and continuous LD50 values) and partitioning every fourth record into the evaluation set accordingly. This approach was taken to ensure an equivalent distribution of the LD50 values and the different hazard categories between the training and the evaluation sets without supervised sampling of the chemicals based on structures (Figure 1A). The sources of the chemical structures were also kept equivalent between the two sets, with chemical structures obtained from DSSTox, being the highest quality, representing over 75% of each set (Figure 1B).

Compound	GHS category
CC[C@H](C)[C@H](NC(=O)[C@H](CCC(=O)O)NC(=O)[C@H](CO)NC(=O)[C@@H](NC(=O)[C@@H](N)CO)C(C)C)C(=O)N[C@@H](CCC(N)=O)C(=O)N[C@@H](CC(C)C)C(=O)N[C@@H](CCSC)C(=O)N[C@@H](Cc1cnc[nH]1)C(=O)N[C@@H](CC(N)=O)C(=O)N[C@@H](CC(C)C)C(=O)NCC(=O)N[C@@H](CCCCN)C(=O)N[C@@H](Cc1cnc[nH]1)C(=O)N[C@@H](CC(C)C)C(=O)N[C@@H](CC(N)=O)C(=O)N[C@@H](CO)C(=O)N[C@@H](CCSC)C(=O)N[C@@H](CCC(=O)O)C(=O)N[C@@H](CCCNC(=N)N)C(=O)N[C@H](C(=O)N[C@@H](CCC(=O)O)C(=O)N[C@@H](Cc1c[nH]c2ccccc12)C(=O)N[C@@H](CC(C)C)C(=O)N[C@@H](CCCNC(=N)N)C(=O)N[C@@H](CCCCN)C(=O)N[C@@H](CCCCN)C(=O)N[C@@H](CC(C)C)C(=O)N[C@@H](CCC(N)=O)C(=O)N[C@@H](CC(=O)O)C(=O)N[C@H](C(=O)N[C@@H](Cc1cnc[nH]1)C(=O)N[C@@H](CC(N)=O)C(=O)N[C@@H](Cc1ccccc1)C(=O)O)C(C)C)C(C)C	2
CCSCCCSc1nnnn1C	4
CNC(=O)C(=NNc1ccc(Cl)cc1[N+](=O)[O-])C(C)=O	5
CCC=CCC=CCC=CCC=CCCCCCCC(=O)OCC	5
O=c1nc(-c2cccnc2)[nH]c2ncccc12	4
COc1ccc(C(=O)OC2=C(C(=O)Nc3ccccn3)N(C)S(=O)(=O)c3ccsc32)cc1	2
COP(=S)(OC)N(C)C(=O)Oc1cccc2c1OC(C)(C)C2	3
CCN(CC)CCc1nc(-c2ccccc2)no1	5
CCOC(=O)C(=O)Nc1cc(OCCOC)ncn1	4
Nc1nc(=O)[nH]cc1F	5
CC(C)(C1CCC(O)CC1)C1CCC(O)CC1 (configuration not stated)	5
O=C=NS(=O)(=O)c1ccccc1C(F)(F)F	4
C=C(C)C(=O)OCCc1ccccc1	5
CCOC(=O)Oc1ccc(C2(c3ccc(OC(=O)OCC)cc3)C(=O)Nc3c(C)cccc32)cc1	5
COc1ccc(OCCCCN2CCN(CCc3cc(OC)c(OC)c(OC)c3)CC2)c(C2Sc3ccccc3N2C(C)=O)c1 (configuration not stated)	4
COc1cccc(N(C)C(=S)Oc2ccc3c(c2)CCCC3)n1	5

Compound	GHS category
Cc1cc(CCCCCCCOc2ccc(C3=NCCO3)cc2)on1	5
O=C(NC(=O)c1c(F)cccc1F)Nc1cc(Cl)c(OC(F)(F)C(F)F)c(Cl)c1	5
CCCCC(CC)COC(=O)C(C#N)=C(c1ccccc1)c1ccccc1 (configuration not stated)	5
CNC(=O)C(=NNc1ccccc1[N+](=O)[O-])C(C)=O	5
Cc1c(S(C)(=O)=O)ccc(C(=O)O)c1Cl	5
Cc1cc(C2CC2)nc(Nc2ccccc2)n1	5
CC(C)(CO)C(O)C(=O)NCCC(=O)NCCSSCCNC(=O)CCNC(=O)C(O)C(C)(C)CO (configuration not stated)	5
COc1ccccc1N=NC(C(C)=O)C(=O)Nc1ccc2[nH]c(=O)[nH]c2c1 (configuration not stated)	5
COc1ccc(C(=O)NCc2ccc(OCCN(C)C)cc2)cc1OC	5
CC(C)(C)c1cc(CCC(=O)NCCCCCCNC(=O)CCc2cc(C(C)(C)C)c(O)c(C(C)(C)C)c2)cc(C(C)(C)C)c1O	5
CN[C@H](CC(C)C)C(=O)N[C@H]1C(=O)N[C@@H](CC(N)=O)C(=O)N[C@H]2C(=O)N[C@H]3C(=O)N[C@H](C(=O)N[C@@H](C(=O)O)c4cc(O)cc(O)c4-c4cc3ccc4O)[C@H](O)c3ccc(c(Cl)c3)Oc3cc2cc(c3O[C@@H]2O[C@H](CO)[C@@H](O)[C@H](O)[C@H]2O[C@H]2C[C@](C)(N)C(O)[C@H](C)O2)Oc2ccc(cc2Cl)[C@H]1O (some centres not stated)	5
CCOCCN(Cc1ccc(Oc2ccc([N+](=O)[O-])cc2)cc1)C(=O)C(Cl)Cl	5
CC(CO)COC1CC2CCC1(C)C2(C)C (configuration not stated)	5
CCCCc1nc(C=O)c(Cl)[nH]1	5
CCCCl	5
CCCCCCCCCCCCCC(=O)Nc1ccc(Cc2ccccn2)c([N+](=O)[O-])c1	3
